According to patent US9241493B2, “Use of an enaminocarbonyl compound in combination with a biological control agent” (BAYER INTELLECTUAL PROPERTY GMBH, priority 2011, dated 2016):

Assays:
Assay type in all cases: in vivo
[1] = tested on: Green peach aphid (Myzus persicae); experiment: Myzus persicae test, foliar application on infested cabbage leaves; conditions: 144 h, 100 g ai/ha, foliar spray, 6 d, read-out: Mortality in % after 6 d
Experimental: Myzus persicae—Foliar Application
(§1) To produce a suitable preparation of active compound, 1 part by weight of active compound is mixed with the stated amount of solvent and emulsifier, and the concentrate is diluted with emulsifier-containing water to the desired concentration. To produce a suitable preparation of a biological suspension the cells or spores are diluted with emulsifier-containing water to the desired concentration.
Cabbage leaves (Brassica oleracea) which are heavily infested by the Green peach aphid (Myzus persicae) are treated by being sprayed with the preparation of the active compound at the desired concentration.
After the specified period of time, mortality in % is determined. 100% means that all the aphids have been killed; 0% means that none of the aphids have been killed. The mortality values thus determined are recalculated using the Colby-formula.

[2] = tested on: Green peach aphid (Myzus persicae); experiment: Myzus persicae test, spray application on Chinese cabbage leaf discs; conditions: foliar, 24 h, 20 g ai/ha, 1 d, read-out: Mortality in % after 1 d
Experimental: Myzus persicae—Test (Spray Application)
as §1
Chinese cabbage (Brassica pekinesis) leaf—discs infected with all instars of the green peach aphid (Myzus persicae), are sprayed with a preparation of the active ingredient at the desired concentration.
After the specified period of time mortality in % is determined. 100% means that all aphids have been killed; 0% means that none of the aphids have been killed.

[3] = tested on: larvae of the mustard beetle (Phaedon cochleariae); experiment: Phaedon cochleariae larvae test, foliar application on cabbage leaves; conditions: 48 h, 60 g ai/ha, foliar spray, 2 d, read-out: Mortality in % after 2 d
Experimental: Phaedon cochleariae Larvae—Foliar Application
as §1, with “spore” for “biological”, “the” for “the cells or”
Cabbage leaves (Brassica oleracea) are treated by being sprayed with the preparation of the active compound of the desired concentration and are infested with larvae of the mustard beetle (Phaedon cochleariae) as long as the leaves are still moist.
(§2) After the specified period of time, mortality in % is determined. 100% means that all the beetle larvae have been killed; 0% means that none of the beetle larvae have been killed. The mortality values thus determined are recalculated using the Colby-formula.

[4] = tested on: mustard beetle larvae (Phaedon cochleariae); experiment: Phaedon cochleariae larvae test, spray application on Chinese cabbage leaf discs; conditions: foliar, 144 h, 100 g ai/ha, 6 d, read-out: Mortality in % after 6 d
Experimental: Phaedon cochleariae Larvae—Spray Application
as §1, with “cells, viruses” for “cells”
Chinese cabbage (Brassica pekinesis) leaf—discs are sprayed with a preparation of the active ingredient of the desired concentration. Once dry, the leaf discs are infested with mustard beetle larvae (Phaedon cochleariae).
as §2

[5] = tested on: larvae of the Banded Cucumber Beetle (Diabrotica balteata); experiment: Diabrotica balteata larvae test, soil application, corn; conditions: 60 g ai/ha, mixed into soil, based on number of germinated corn plants
Experimental: Diabrotica balteata Test/Larvae—Soil Application
as §1, with “spore” for “biological”, “the” for “the cells or”
The preparation containing the active ingredient is thoroughly mixed into the soil. […] The treated soil is filled into pots and sown with 5 corn seeds per pot. 3 days after sowing larvae of the Banded Cucumber Beetle (Diabrotica balteata) are placed in the soil.
After the desired period of time the level of activity expressed in % is determined. The level of activity is calculated on the basis of the number of corn plants which have successfully germinated. The efficacy values determined thus are recalculated using the Colby-formula.

[6] = tested on: Seeds of soybean (Glycine max); experiment: Seed treatment, germination test soybean; conditions: 0.3 g ai/kg seeds (head: g ai/kg seeds)
Experimental: Seed Treatment—Germination Test Soybean
Seeds of soybean (Glycine max) were treated by being mixed with the desired amount of active compound and spores and water. After drying, 25 seeds were sown into each pot filled with sandy loam.
After 4 days the level of activity expressed in % was determined. The level of activity was calculated on the basis of the number of soybean plants which have successfully germinated.

For `O=C1C=C(N(Cc2ccc(Cl)nc2)CC(F)F)CO1` [Compound (I-3), 4-{[(6-Chloropyrid-3-yl)methyl](2,2-difluorethyl)amino}furan-2(5H)-one], which mortality at 100 g/ha [1] is on record?
The mortality at 100 g/ha was 90%.

And the mortality at 20 g/ha [2]?
Its mortality at 20 g/ha is 0%.

What about the mortality at 60 g/ha [3] of the same compound?
The mortality at 60 g/ha was 20%.

And the mortality at 100 g/ha [4]?
The mortality at 100 g/ha was 0%.

What about the “Efficacy in % after 5 d” value [5] of the same compound?
The value was 75%.

What about the “Germination in % related to untreated control, evaluation after 4 d” value [6] of the same compound?
Its value is 72.73%.
